Columns and labels:
MAPK14 (human) = MAPK14 (human) (UniProt Q16539); experiment: Inhibition of MAPK14 Kinase Activity; conditions: concentration not given here
CDK2 (human) = CDK2 (human) (UniProt P24941); experiment: Enzyme Assay; conditions: concentration not given here

Sequence of MAPK14 (human) (Q16539 whole entry, looked up): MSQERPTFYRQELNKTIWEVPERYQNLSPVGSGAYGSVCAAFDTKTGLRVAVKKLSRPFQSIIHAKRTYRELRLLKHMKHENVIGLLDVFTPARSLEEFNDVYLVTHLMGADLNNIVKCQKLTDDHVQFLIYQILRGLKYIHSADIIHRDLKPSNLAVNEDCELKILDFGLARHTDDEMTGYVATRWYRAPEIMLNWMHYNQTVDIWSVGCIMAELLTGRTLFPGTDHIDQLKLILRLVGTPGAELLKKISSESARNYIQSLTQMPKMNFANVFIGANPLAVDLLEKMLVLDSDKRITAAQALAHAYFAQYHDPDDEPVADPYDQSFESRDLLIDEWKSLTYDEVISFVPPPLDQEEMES

SMILES	inhibition (MAPK14 (human)) [%]	inhibition (CDK2 (human)) [%]
COc1ncc(C2=C(c3cn(CCCO)c4ncccc34)C(=O)NC2=O)c(OC)n1	2	89
O=C1NC(=O)C(c2cn(CCCO)c3ncccc23)=C1c1cnccn1	31	30
Cn1ccc(C2=C(c3cn(CCCO)c4ncccc34)C(=O)NC2=O)n1	8	44

From the Kinase Knowledgebase extract (Sharma et al. 2016)
